Source: US20240197739A1 (Sanofi, priority 2021, published 2024)
Where two headings read alike, the source gives them in different places.

Tested on: subcutaneous MCF7-Y537S human breast cancer cell line xenograft
Conditions: for Tumor volume changes from baseline: Median / Regressions Complete / Regressions Partial / Median % of regressions on day 22 / Unscheduled death (Day of death): PO; for Tumor volume changes from baseline: Median: n = 7; for Anti-tumor effect on tumor growth (statistical significance versus control): two-way ANOVA, contrast analysis; for Regressions Complete: animals with complete regression / group of 7; for Regressions Complete / Regressions Partial / Unscheduled death (Day of death): 22 days; for Regressions Partial: animals with partial regression / group of 7; for ΔT/ΔC in % at day 22: ratio of median tumor volume changes from baseline, treated vs control; for ΔT/ΔC in % at day 22 / Median % of regressions on day 22 / Biological Interpretation: day 22; for Biological Interpretation: based on ΔT/ΔC and statistical analysis; for Unscheduled death (Day of death): deaths / group of 7
Protocol: Anti-tumor efficacy was evaluated by tumor volume measurement.
Female BALB/c nude mice were obtained from Shanghai Sino-British SIPPR/BK Laboratory Animal Co., LTD (Shanghai, CHINA). Animals were allowed to acclimate for at least four days before the study enrollment. Mice were 6 to 8 weeks old and weighed between 18 and 24 grams at the beginning of the treatments. These animals were housed under conditions outlined in the guidelines approved by the Institutional Animal Care and Use Committee (IACUC) of WuXi AppTec following the guidance of the Association for Assessment and Accreditation of Laboratory Animal Care (AAALAC).
Parental MCF7 cells were obtained from the American Type Culture Collection (ATCC® HTB-22™). MCF7-Y537S (ESR1) cell line was MCF7 cells expressing the ER. Y537S variant that was generated by Sanofi Biology Discovery Group. Y537S mutation was introduced in ESR1 construct (GenBank NM_000125.3) by site directed mutagenesis (Toy W. et al., Cancer Discovery, 2017, 7, 277-287). The construct was transfected in MCF7 cells, which were selected for their growth in absence of estradiol. MCF-Y537S is an ESR1 mutation that confers estrogen-independent activity to ERα(Estrogen Receptor alpha) and contributes to endocrine resistant disease (Robinson D.R. et al., Nat Genet., 2013, 45 (12), 1446-1451). The cells were grown in Eagle's Minimum Essential Medium (EMEM) supplemented with 10% fetal bovine serum (FBS), human Insulin, in 5% CO2 at 37° C. The cells were harvested in 0.25% Trypsin EDTA and washed by Phosphate Buffered Saline (PBS) and re-suspended in PBS with 75% Matrigel. The cells (20×10^6 cells/per mouse) were subcutaneously (SC) implanted into the right flank of female nude mice.
When the MCF7-Y537S tumors were established, the tumors were reserved as tumor stocks for fragment implantation. The tumors were serially propagated through fragment tissue transplantation subcutaneously. The fragment tumor tissues were subcutaneously implanted into the right flank of female nude mice. Twenty-eight mice were assigned in this experiment.
The animals required for experiment (plus extra) were pooled and implanted with MCF7-Y537S tumor fragment tissues. […] Animal body weight was assessed daily.
The dosages are expressed in mg/kg and based on daily body weight per animal. Vehicle treated animals were used as controls. Mice were checked daily for adverse clinical reactions. Individual mice were weighed daily until the end of the experiment. Mice would be euthanized when morbid or weight loss ≥20% was observed. Tumors were measured with a caliper twice weekly until final sacrifice. When a tumor size reached approximately 2000 mm^3 or when there are animal health issues (40% area of a tumor ulcerated), animals were euthanized, and date of death recorded. Solid tumor volumes were estimated from two-dimensional tumor measurements and calculated according to the following equation: […]
A dosage producing either 15% body weight loss during 3 consecutive days for an individual mouse, 20% body weight loss during 1 day, or 10% or more drug related deaths, was considered an excessively toxic dosage, unless under certain circumstances bodyweight loss or animal death can be considered non-drug related. […] Animal body weight included the tumor weight.
The primary efficacy end points include tumor volume changes from baseline summarized by the ratio of medians of tumor volume changes from baseline between the treated and control groups (ΔT/ΔC). Changes in tumor volume for each treated (T) and control (C) group were calculated for each animal on each day by subtracting the tumor volume on the day of first treatment (staging day) from the tumor volume on the specified observation day.

[1] = Day 4, amcenestrant 20 mg/kg BID, ribociclib 100 mg/kg QD
[2] = Day 8, amcenestrant 20 mg/kg BID, ribociclib 100 mg/kg QD
[3] = Day 11, amcenestrant 20 mg/kg BID, ribociclib 100 mg/kg QD
[4] = Day 15, amcenestrant 20 mg/kg BID, ribociclib 100 mg/kg QD
[5] = Day 22, amcenestrant 20 mg/kg BID, ribociclib 100 mg/kg QD
[6] = amcenestrant 20 mg/kg BID, ribociclib 100 mg/kg QD, PO for 22 days
[7] = amcenestrant 20 mg/kg BID, ribociclib 100 mg/kg QD
[8] = PO for 22 days, amcenestrant 20 mg/kg BID, ribociclib 100 mg/kg QD

Compound | Tumor volume changes from baseline: Median [1] | Tumor volume changes from baseline: Median [2] | Tumor volume changes from baseline: Median [3] | Tumor volume changes from baseline: Median [4] | Tumor volume changes from baseline: Median (Day 18, amcenestrant 20 mg/kg BID, ribociclib 100 mg/kg QD) | Tumor volume changes from baseline: Median [5] | Anti-tumor effect on tumor growth (statistical significance versus control) [6] | Regressions Complete [7] | Regressions Partial [7] | ΔT/ΔC in % at day 22 [8] | Median % of regressions on day 22 [7] | Biological Interpretation | Unscheduled death (Day of death) [7] | Body weight loss [6] | Tolerability [6]
O=C(O)c1ccc2c(c1)CCCC(c1ccc(Cl)cc1Cl)=C2c1ccc(O[C@H]2CCN(CCCF)C2)cc1 [SAR439859, 6-(2,4-dichlorophenyl)-5-[4-[(3S)-1-(3-fluoropropyl)pyrrolidin-3-yl]oxyphenyl]-8,9-dihydro-7H-benzo[7]annulene-2-carboxylic acid] | 43.0 mm^3 | 121.0 mm^3 | 214.0 mm^3 | 360.0 mm^3 | 392.0 mm^3 | 501.0 mm^3 | no statistically significant anti-tumor effect | 0/7 | 0/7 | 47% | 0% | Inactive* | 0/7 | – | –
CN(C)C(=O)c1cc2cnc(Nc3ccc(N4CCNCC4)cn3)nc2n1C1CCCC1.O=C(O)CCC(=O)O [ribociclib, 7-cyclopentyl-N,N-dimethyl-2-[[5-(1-piperazinyl)-2-pyridinyl]amino]-7H-pyrrolo[2,3-d]pyrimidine-6-carboxamide] | 44.0 mm^3 | 103.0 mm^3 | 183.0 mm^3 | 292.0 mm^3 | – | 423.0 mm^3 | no statistically significant anti-tumor efficacy | 0/7 | 0/7 | 40% | 0% | Inactive* | 0/7 | no significant body weight loss | well-tolerated
